The results in this text go back to patent publication US10882854B2, “Heterocyclic compounds and use thereof” (National Health Research Institutes, priority 2017, dated 2021).

Data set [1] deals with mild traumatic brain injury (mTBI) model. The data set is described as follows: Mild traumatic brain injury (mTBI) model in mice. It counts as in vivo, Adult CD1 mice. The settings on record: CD1 mice, versus vehicle.
Data set [2] concerns T-cell acute lymphoblastic leukemia (CCRF-CEM) cells. As to the kind of experiment: Inhibition of CXCL12-induced chemotaxis in lymphoblastic leukemia cells. It counts as cell-based. The settings on record: Homo sapiens, CXCL12 10 nM, 2.5 h at 37 °C, read-out: concentration required to inhibit chemotaxis by 50% (EC50). The procedure: The response of cancer cells to compounds of Formula (I) was evaluated using the chemotaxis assay as set forth below.
T-cell acute lymphoblastic leukemia (CCRF-CEM) cells in Roswell Park Memorial Institute medium (RPMI) 1640 supplemented with 10% […] were incubated with 250 μL of a test compound. The assay was performed using Millicell Hanging Cell Culture Inserts (pore size 5 μm; 24-well plate; Millipore, Bedford, Mass., USA). After 10 minutes at 37° C., 250 μL of cells pre-incubated with a test compound were plated per well in the upper chambers of the inserts at a density of 2.5×10^5 cells/well. 300 μL/well medium containing CXCL12 (10 nM) and a test compound were plated in the lower chamber of the insert. After 2.5 h at 37° C., cells in both chambers of inserts were measured by flow cytometry (Guava Technologies, Hayward, Calif., USA).

The target of another data set is T1, human CXCR4 (Homo sapiens, UniProt P61073).
T1 construct: expressed in transfected cells; host or cells: HEK293 cells (membranes)
T1 sequence (P61073 whole entry): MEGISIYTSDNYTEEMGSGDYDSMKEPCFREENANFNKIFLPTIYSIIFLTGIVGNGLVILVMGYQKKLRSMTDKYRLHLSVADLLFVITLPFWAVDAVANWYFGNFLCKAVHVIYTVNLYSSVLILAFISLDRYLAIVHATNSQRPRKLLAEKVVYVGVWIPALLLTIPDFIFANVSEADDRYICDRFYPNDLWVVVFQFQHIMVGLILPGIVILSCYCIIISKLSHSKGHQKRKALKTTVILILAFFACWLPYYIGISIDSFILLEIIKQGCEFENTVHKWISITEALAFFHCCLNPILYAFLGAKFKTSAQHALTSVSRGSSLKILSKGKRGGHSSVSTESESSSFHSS
As to the kind of experiment: Inhibition of 125I-CXCL12 radioligand binding, membranes of human CXCR4-transfected HEK293 cells. The settings on record: 0.16 nM 125I-CXCL12, 60 min at 30 °C, read-out: concentration required to inhibit binding of 125I-CXCL12 to CXCR4 by 50% (IC50). The procedure: Binding competition between the compounds of Formula (I) and human CXCL12 was assessed using a radioligand binding assay as described below.
Membranes (2-4 μg) prepared from human CXCR4-transfected HEK293 cells in 40 μL of assay buffer (50 mM HEPES-NaOH, pH 7.4, 100 mM NaCl, 5 mM MgCl2, 1 mM CaCl2, 0.5% bovine serum albumin) were incubated with 20 μL of radio-labeled ^125I-CXCL12 (0.16 nM) and 20 μL of a test compound in an assay plate (Costar Corning, Cambridge, Mass.). After 60 minutes at 30° C., the incubation was terminated by transferring the resulting reaction mixture to a 96-well GF/B filter plate (Millipore Corp., Billerica, Mass.) and filtered via a manifold. The plate was washed with 100 μL of ice-cold wash buffer (50 mM HEPES-NaOH, pH 7.4, 100 mM NaCl) four times. The radioactivity bound to the filter was measured by Topcount (PerkinElmer Inc., Waltham, Mass.).

Another data set deals with HCC cell line HCA-1. As to the kind of experiment: Syngeneic orthotopic hepatocellular carcinoma (HCC) mouse model. It counts as in vivo, C3H mice. The protocol:
The efficacy of a compound of Formula (I), i.e., Compounds 42, in treating HCC was assessed using a syngeneic mouse model as follows.
C3H mouse-derived HCC cell line HCA-1 was used. HCA-1 cells were orthotopically implanted in C3H mice for 10 days. The mice were subsequently treated with sorafenib (a small molecule drug for treating hepatocellular carcinoma; 40 mg/kg) daily for two weeks or treated with vehicle (PBS) alone as a control. Tested compounds, e.g., AMD3100 (10 mg/kg/day) and Compound 42 (10 mg/kg/day), were each administered continuously to those mice treated with sorafenib using an Alzet osmotic pump (DURECT Corporation, Cupertino, Calif.) for two weeks.

In data set [3] the test system is rat ischemic myocardial infarction model. The data set is described as follows: Rat ischemic myocardial infarction model. It counts as in vivo, Male SD rats. The settings on record: SD rats; 5 mg/kg single subcutaneous injection 30 minutes before LAD ligation; 24 hours; versus saline. The protocol: The efficacy of a compound of Formula (I), i.e., Compound 42, in protecting against myocardial infarction was assessed in a rat ischemic myocardial infarction model as follows.
Male SD rats (400-500 gram each) received a single subcutaneous injection of Compound 42 at a dosage of 5 mg/kg or an equal volume of saline (n=18-20 per group) 30 minutes before surgery was conducted. Left anterior descending artery (LAD) was transiently ligated using a 6-0 nylon suture for a 30-minute ischemic period in this surgery. After 24 hours, each rat was anesthetized and the LAD was ligated again. 2 mL of 5% Evan's Blue was then injected into the tail vein and allowed to perfuse for 2 minutes. The heart was immediately excised, washed with saline, froze at −80° C., and cut in semi-frozen state into 2-mm thick sections. Slices were then incubated in 1% tri-phenyltetrazolium chloride solution for 10 minutes at 37° C. and fixed in 10% formalin. Infarct size was recorded after staining.

Entries after “also recorded” stand apart in the source; their conditions may differ.

`Cc1cc(NC2CCN(C(=O)CCNCC(=O)O)CC2)nc(NCc2nc(CCCNCCCNC3CCCCC3)co2)n1` [Compound 42]: the “vertical activity and vertical movement time in mTBI mice” value in data set [1] (3 mg/kg, 24 hours starting 15-minute after injury) is “significantly improved vertical activity”. For the same molecule, the “expression of inflammatory marker IBA1 in the lesioned cortex (qRTPCR)” value in data set [1] (3 mg/kg, cortex collected day 5 after mTBI, 3 mg/kg) was “significantly reduced IBA1 expression; also recorded: significantly suppressed”. The “locomotor activity after mTBI” value in data set [1] (early post-treatment given systemically after mTBI) was “significantly improved locomotor activity”. For the same molecule, the EC50 in data set [2] is less than 0.05 µM. Moreover, on human CXCR4, the IC50 was less than 0.05 µM. The body weight loss entry in the data set with HCC cell line HCA-1 (C3H mice with HCA-1 tumors, 10 mg/kg/day for two weeks) is “no significant body weight loss”. Also, the tumor size entry in the data set on HCC cell line HCA-1 (C3H mice with orthotopic HCA-1, 10 mg/kg/day by osmotic pump for two weeks, combined with sorafenib 40 mg/kg daily, control about 400 mm^3) was “about 50 mm^3”. In data set [3], the “protection of heart against ischemic damage (infarct size)” value is given as “protected heart against ischemic damage to a large degree”.
